Holding throughout (experiment): KINOMEscan
Holding throughout (format): binding
Common to all, as to details: read-out: % control activity remaining

In test [1] the target is T1, PIK3CA(E542K (Homo sapiens, UniProt P42336, E542K)).
T1 construct: purchased Eurofins DiscoverX KINOMEscan

Test [2] has as its target T2, BLK (Homo sapiens, UniProt P51451).
T2 construct: purchased Eurofins DiscoverX KINOMEscan

For test [3], the target named is T3, MAK (Homo sapiens, UniProt P20794).
T3 construct: purchased Eurofins DiscoverX KINOMEscan
T3 sequence (P20794 1-623): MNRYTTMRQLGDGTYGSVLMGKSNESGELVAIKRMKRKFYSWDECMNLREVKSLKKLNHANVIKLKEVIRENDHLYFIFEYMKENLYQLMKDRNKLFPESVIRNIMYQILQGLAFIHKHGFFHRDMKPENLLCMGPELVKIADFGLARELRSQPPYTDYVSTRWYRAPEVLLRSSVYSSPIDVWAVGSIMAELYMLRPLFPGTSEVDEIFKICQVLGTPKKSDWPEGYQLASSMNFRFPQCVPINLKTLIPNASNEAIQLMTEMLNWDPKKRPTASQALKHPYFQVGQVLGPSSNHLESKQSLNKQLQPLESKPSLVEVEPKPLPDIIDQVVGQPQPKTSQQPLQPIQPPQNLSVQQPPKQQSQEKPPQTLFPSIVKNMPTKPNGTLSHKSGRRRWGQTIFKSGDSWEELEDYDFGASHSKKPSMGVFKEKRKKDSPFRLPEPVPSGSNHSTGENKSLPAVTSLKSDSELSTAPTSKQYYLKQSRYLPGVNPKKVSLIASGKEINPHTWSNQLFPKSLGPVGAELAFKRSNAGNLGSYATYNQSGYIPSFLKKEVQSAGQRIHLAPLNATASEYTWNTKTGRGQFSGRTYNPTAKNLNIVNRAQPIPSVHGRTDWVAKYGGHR

The target in test [4] is T4, ULK1 (Homo sapiens, UniProt O75385).
T4 construct: purchased Eurofins DiscoverX KINOMEscan
T4 sequence (O75385 1-1050): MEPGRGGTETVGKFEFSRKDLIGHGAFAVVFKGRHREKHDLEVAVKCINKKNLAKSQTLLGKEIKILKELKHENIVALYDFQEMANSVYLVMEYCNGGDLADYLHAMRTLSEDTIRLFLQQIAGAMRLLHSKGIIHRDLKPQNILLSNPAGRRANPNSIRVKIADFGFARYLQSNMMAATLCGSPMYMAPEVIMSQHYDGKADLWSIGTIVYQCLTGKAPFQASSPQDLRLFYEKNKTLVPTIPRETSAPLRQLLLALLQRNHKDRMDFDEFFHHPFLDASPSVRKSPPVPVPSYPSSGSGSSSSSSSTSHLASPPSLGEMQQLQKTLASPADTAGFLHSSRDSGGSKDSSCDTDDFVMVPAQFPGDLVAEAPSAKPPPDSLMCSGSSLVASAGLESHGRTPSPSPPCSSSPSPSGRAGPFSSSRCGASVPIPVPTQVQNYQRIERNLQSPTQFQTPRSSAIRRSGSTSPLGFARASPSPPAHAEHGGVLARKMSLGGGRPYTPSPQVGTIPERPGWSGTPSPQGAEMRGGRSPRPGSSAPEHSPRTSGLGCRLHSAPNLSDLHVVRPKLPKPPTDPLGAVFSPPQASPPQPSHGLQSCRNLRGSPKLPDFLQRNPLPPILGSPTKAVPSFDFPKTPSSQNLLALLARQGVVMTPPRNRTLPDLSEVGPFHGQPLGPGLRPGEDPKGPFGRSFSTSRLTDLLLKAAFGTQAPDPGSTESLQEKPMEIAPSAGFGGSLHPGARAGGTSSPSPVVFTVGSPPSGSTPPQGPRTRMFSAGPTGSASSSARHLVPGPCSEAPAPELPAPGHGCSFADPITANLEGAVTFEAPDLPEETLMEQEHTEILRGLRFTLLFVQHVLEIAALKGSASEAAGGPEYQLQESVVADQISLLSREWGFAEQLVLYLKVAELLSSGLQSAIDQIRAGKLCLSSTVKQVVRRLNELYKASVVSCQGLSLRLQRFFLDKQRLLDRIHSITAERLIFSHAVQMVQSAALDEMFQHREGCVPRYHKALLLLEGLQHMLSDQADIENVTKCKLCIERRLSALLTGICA

Test [5] deals with T5, ACVR2A (Homo sapiens, UniProt P27037).
T5 construct: purchased Eurofins DiscoverX KINOMEscan
T5 sequence (P27037 20-513): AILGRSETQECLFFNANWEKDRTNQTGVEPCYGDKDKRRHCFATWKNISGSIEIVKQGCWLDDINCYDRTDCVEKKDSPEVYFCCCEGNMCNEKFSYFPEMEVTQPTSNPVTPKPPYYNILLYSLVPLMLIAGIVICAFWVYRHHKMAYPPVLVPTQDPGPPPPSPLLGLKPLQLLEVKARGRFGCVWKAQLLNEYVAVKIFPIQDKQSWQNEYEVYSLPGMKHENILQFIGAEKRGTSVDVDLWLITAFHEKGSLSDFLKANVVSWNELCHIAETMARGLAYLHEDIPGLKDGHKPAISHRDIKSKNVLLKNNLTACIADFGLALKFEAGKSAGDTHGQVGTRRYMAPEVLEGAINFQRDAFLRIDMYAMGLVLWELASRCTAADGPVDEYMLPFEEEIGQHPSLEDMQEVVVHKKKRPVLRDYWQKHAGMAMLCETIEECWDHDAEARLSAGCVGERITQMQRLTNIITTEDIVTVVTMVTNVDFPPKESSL

The target of test [6] is T6, ABL1(F317I)-phosphorylated (Homo sapiens, UniProt P00519, F317I).
T6 construct: purchased Eurofins DiscoverX KINOMEscan
T6 sequence (P00519 whole entry F317I): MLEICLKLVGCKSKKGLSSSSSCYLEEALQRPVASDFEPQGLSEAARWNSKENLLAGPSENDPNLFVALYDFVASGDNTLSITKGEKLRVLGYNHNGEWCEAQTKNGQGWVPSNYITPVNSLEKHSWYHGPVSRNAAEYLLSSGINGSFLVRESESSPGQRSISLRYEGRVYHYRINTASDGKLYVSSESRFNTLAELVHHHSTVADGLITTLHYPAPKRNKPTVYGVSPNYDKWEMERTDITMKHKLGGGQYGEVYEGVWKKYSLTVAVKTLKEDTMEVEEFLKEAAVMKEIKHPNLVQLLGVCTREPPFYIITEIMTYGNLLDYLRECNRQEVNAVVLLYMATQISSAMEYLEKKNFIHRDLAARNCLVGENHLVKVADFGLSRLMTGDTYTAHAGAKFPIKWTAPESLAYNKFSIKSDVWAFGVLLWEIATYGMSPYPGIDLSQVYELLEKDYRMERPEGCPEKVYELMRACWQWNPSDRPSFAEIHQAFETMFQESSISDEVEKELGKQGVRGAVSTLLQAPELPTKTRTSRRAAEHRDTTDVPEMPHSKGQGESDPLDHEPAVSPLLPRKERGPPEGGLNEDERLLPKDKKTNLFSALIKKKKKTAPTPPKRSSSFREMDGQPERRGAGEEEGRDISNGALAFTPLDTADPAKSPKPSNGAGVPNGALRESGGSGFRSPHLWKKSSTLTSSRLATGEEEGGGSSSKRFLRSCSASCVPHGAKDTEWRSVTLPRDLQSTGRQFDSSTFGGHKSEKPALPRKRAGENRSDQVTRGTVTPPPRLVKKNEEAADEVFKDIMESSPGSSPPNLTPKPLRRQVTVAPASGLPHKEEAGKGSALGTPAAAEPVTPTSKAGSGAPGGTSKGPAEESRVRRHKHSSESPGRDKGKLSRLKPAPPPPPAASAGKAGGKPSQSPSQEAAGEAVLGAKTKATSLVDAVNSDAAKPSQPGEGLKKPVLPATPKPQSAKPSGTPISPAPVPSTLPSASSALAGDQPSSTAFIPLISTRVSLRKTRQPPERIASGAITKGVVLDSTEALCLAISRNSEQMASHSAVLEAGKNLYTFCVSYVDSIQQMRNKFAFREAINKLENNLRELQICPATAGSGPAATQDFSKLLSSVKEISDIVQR

T2 sequence (P51451 whole entry): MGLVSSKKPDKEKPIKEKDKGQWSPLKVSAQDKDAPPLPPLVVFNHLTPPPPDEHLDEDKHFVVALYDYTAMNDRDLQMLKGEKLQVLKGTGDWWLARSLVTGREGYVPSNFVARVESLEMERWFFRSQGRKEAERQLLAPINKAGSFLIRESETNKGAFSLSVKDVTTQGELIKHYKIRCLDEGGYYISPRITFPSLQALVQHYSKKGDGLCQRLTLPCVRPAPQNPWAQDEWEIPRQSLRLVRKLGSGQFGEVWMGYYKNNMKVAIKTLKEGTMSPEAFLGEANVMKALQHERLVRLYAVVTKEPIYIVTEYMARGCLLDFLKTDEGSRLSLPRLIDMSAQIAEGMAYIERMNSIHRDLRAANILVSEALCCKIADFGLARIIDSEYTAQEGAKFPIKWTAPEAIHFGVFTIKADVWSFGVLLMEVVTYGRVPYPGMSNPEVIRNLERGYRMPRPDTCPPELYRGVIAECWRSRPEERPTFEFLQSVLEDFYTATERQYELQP
T1 sequence (P42336 whole entry E542K): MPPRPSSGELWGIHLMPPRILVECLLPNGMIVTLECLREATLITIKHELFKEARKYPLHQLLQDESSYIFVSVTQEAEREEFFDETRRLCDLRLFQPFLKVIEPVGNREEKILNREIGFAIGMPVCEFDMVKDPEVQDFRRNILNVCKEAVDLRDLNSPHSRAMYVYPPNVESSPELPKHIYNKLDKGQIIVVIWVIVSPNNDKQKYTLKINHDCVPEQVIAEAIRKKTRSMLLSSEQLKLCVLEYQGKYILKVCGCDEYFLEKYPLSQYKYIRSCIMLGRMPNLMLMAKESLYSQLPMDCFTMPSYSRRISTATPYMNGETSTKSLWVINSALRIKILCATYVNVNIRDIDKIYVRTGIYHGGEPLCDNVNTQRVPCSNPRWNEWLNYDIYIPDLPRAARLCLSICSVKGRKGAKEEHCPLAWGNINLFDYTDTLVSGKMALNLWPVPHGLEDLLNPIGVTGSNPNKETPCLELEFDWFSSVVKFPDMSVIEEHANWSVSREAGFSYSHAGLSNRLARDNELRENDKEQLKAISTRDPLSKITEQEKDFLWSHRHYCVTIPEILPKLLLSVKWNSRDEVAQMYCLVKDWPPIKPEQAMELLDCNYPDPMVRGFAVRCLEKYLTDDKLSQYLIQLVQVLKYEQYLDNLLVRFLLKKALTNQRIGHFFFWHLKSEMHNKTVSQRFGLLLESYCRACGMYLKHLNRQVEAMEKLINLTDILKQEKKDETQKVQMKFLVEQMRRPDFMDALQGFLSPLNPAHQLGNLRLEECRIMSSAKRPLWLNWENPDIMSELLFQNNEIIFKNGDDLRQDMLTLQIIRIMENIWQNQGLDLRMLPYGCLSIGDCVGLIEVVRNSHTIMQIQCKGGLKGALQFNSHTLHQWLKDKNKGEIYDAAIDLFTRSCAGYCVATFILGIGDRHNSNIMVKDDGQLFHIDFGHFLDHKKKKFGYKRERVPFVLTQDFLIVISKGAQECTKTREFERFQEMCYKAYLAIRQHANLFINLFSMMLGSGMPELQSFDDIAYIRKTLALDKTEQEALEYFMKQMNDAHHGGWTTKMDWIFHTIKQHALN

On to `Clc1cc(NCC2CC2)c2ncc(-c3ccc4[nH]ncc4c3)n2n1` [compound 2, 6-Chloro-N-(cyclopropylmethyl)-3-(1H-indazol-5-yl)imidazo[1,2-b]pyridazin-8-amine], for which the remaining binding at 1 µM stood at 72% in test [1]; 53% in test [2]; 82% in test [3]; 78% in test [4]; 100% in test [5]; 93% in test [6].
Turning to `O=C(CN1CCOCC1)N[C@H]1CC[C@H](Nc2cc(Cl)nn3c(-c4ccc5[nH]ncc5c4)cnc23)CC1` [compound 26], the remaining binding at 1 µM was determined as 93% in test [1]; 95% in test [2]; 61% in test [3]; 97% in test [4]; 100% in test [5]; 8.1% in test [6].
For `CN1CCC(CNc2cc(Cl)nn3c(-c4cc5nc(Nc6ccccc6)[nH]c5cc4F)cnc23)CC1` [compound 31, 6-Chloro-3-(6-fluoro-2-(phenylamino)-1H-benzo[d]imidazol-5-yl)-N-((1-methylpiperidin-4-yl)methyl)imidazo[1,2-b]pyridazin-8-amine], the remaining binding at 1 µM was 65% in test [1]; 79% in test [2]; 69% in test [3]; 79% in test [4]; 97% in test [5]; 76% in test [6].

(Values after article PMC6437697 (Journal of Medicinal Chemistry, 2019).)
